According to patent US7951789B2 (priority 2006, dated 2011):
pEC50: −log10 of the molar value. Values joined by “and” are separate entries in the source; they are usually repeats but may differ in a detail not shown here. Equal entries are not always repeated. Where two headings read alike, the source gives them in different places.

Legend:
[1] = system: wild-type HBV (secreted virions); test: Anti-HBV activity in HBV virions via endogenous polymerase assay (EPA); format: cell-based; conditions: Hepatitis B virus, read-out: Virion EC50 (μM)
Description: (§1) Compounds were tested in an anti-HBV assay. Determination of anti-HBV activity in HBV virions and nucleocapsids via endoenous polymerase assays (EPA)
(§2) • 1. 12-well collagen-I coated plates were seeded with producer cells expressing wild-type HBV at a density of 0.5-1×10^6 cells per well in 2 ml growth/selection media. • 2. Drug stock solutions were made up freshly in 100% DMSO as 200× stocks. Five additional 4-fold dilutions were prepared from these 200× stock in 100% DMSO. For each experiment, 4 aliquots of each drug dilution series were stored at −20° C. until used. • 3. Once cells reached confluency (1 day after cells were seeded), drug treatment was initiated by adding 10 μl of drug dilution into 2 ml of fresh growth/selection media. […] The no-drug control wells received only 10 μl of DMSO in fresh media. • 4. Cells were treated every-other-day with 2 ml of fresh drug/medium for a total of 8 days. Cell lysates were then collected on day 10 and subjected to EPA analysis as described below. Preparation of Nucleocapsid-Containing Lysates for Epa Analysis • 1. Cells were grown for 3 to 4 days in 12-well collagen-I coated plates until confluent. • 2. Media was carefully aspirated and the cell monolayers were rinsed once with 1 ml of PBS. • 3. One ml of lysis buffer (50 mM Tris-HCl pH 7.5/150 mM NaCl/5 mM MgCl2/0.2% NP-40) was added to each well. Plates were stored on ice for 30 min to 4 h. • 4. Lysed cells were transferred to 1.5 ml-microfuge tubes. • 5. Lysates were clarified by spinning at 14,000 rpm for 5 min at room temperature. • 6. Clarified lysates were transferred to fresh tubes and immediately frozen on dry-ice, then stored at −80° C. until endogenous polymerase assays were performed as described below. Preparation of Secreted Virions from Supernatant for Epa Analysis • 1. Cells were grown for 3 to 4 days in 12-well collagen-I coated plates until confluent. • 2. Media was carefully aspirated and transferred to 1.5 ml-microfuge tubes. • 3. Supernatants were clarified by spinning at 14,000 rpm for 5 min at room temperature. • 4. Clarified supernatants were transferred to fresh tubes and immediately frozen on dry-ice, then stored at −80° C. until endogenous polymerase assays were performed essentially as described below. Endogenous Polymerase Assay (EPA) of Cell Lysates and Supernatants • 1. EPAs were performed essentially as described by Seifer et al (1998). Intracellular HBV nucleocapsids were immunoprecipitated from the cytoplasmic lysates overnight at 4° C. with a polyclonal rabbit anti-HBcAg antibody and immobilized on protein A sepharose CL-4B beads. Secreted virions were immunoprecipitated from clarified cell supernatants overnight at 4° C. with a monoclonal mouse anti-LS antibody (MA18/7) in the absence of detergent. • 2. Following 3 washes of the immobilized capsids or virions with 1 ml of EPA wash buffer (75 mM NH4Cl, 50 mM Tris-HCl pH 7.4, 1 mM EDTA), endogenous polymerase reactions were initiated by adding 50 μl of detergent-containing EPA cocktail (50 mM Tris-HCl pH7.4, 75 mM NH4Cl, 1 mM EDTA, 20 mM MgCl2, 0.1 mM β-ME, 0.5% NP-40, 100 μM cold dGTP, TTP, dCTP, and 50 nM ^33P-dATP) and incubated overnight at 37° C. The detergent is required to strip the outer envelope from immunoprecipitated virions as well as to enhance permeability of the nucleocapsids. • 3. Following digestion with 1 mg/ml of proteinase K for 1 h at 37° C., endogenously ^33P-labeled HBV DNA was liberated via phenol/chloroform extraction. • 4. The nucleic acids were precipitated with 1 volume of 5M NH4-acetate and 2.5 volumes of 100% EtOH, and then separated on a 1% native agarose gel in Tris-borate-EDTA buffer. • 5. Gels were blotted onto positively charged nylon membrane overnight at room temperature via capillary transfer in 0.4 N NaOH. • 6. Dried membranes were exposed to a Phosphorlmager screen (GE Healthcare) overnight at room temperature, then scanned (Storm 860, GE Healthcare) and quantitated with ImageQuant software (GE Healthcare). • 7. […]

[2] = system: wild-type HBV (intracellular nucleocapsids); test: Anti-HBV activity in HBV nucleocapsids (RI) via endogenous polymerase assay (EPA); format: cell-based; conditions: Hepatitis B virus; for pEC50: wild-type HBV producer cell line, intracellular nucleocapsids, EPA, read-out: RI EC50
Description: as §1, §2

[3] = In vivo studies in rat: distribution of A550 and LddATP in the liver; conditions: male rats
Description: Distribution of NM-204 (the compound of Example 1 (Hydroxy-tBuSATE N-benzylphosphoramidate derivative of L-ddA) (A550) in the rat liver was evaluated following a single intravenous (I.V.) or oral administration of A550 (NM-204) at a dose of 20 (oral) or 10 (I.V.) mg/Kg body weight. The dose solutions were prepared on the same day prior to dose administration.
At the specified time point (1 and 3 hours for IV animals or 1, 3 and 8 hours for oral animals), each animal was euthanized by CO2 gas followed by exsanguination via the abdominal vein. Livers were collected immediately after sacrifice, flash frozen in liquid nitrogen, placed on dry ice, and later stored at −70° C., before being analyzed.
Control rat liver samples were taken from whole frozen livers (Bioreclamation, Inc. Hicksville, N.Y.) with the aid of a tissue coring utensil (Harris Unicore, 8.0 mm, VWR,). Each ˜0.1 g sample was placed in individual 2 mL poly vials with 0.940 mL of 80% MeOH/20% DIH2O and homogenates were prepared using a mechanical tissue disruptor (Tissue Master, Omni-International, Inc, Marietta Ga.). The vials received a 10 μl aliquot of a working stock solution and a 50 μl aliquot of the ISTD before vortexing for ˜30 sec. The mixtures were stored overnight at −20° C. and the next day were removed for 10 min of centrifugation in a benchtop centrifuge. Each supernatant was transferred to individual centrifugation filtration units (0.45 μm) and the resulting filtrates were transferred to HPLC vials for the LC/MS/MS analysis. The final concentrations of ddATP in the calibration standards was 1000, 500, 250, 125, 50, and 0 pmol/ml. Each calibration standard was directly injected in a 50 μL volume onto the ion-exchange column for analysis. Standard curve analysis of calibration standards from control liver extracts was conducted.
Analysis of ddATP was done by an ion-exchange chromatography method with on-line positive ionization ESI-MS/MS detection in multiple reaction monitoring (MRM) detection mode. […] This is equivalent to a range of […] per gram liver by the sample preparation employed. The HPLC MS MS conditions described in Example 5 were utilized.

[4] = Cytotoxicity evaluation in GS4.1 cells (Cell Titer 96 AQueous One Solution); format: cell-based; conditions: human
Description: (§3) Huh-7 cells containing HCV Conl subgenomic replicon (GS4.1 cells), (C. Seeger; Fox Chase University, Philadelphia, Pa., USA), are grown in Dulbecco's Modified Eagle Medium (DMEM) supplemented with 10% fetal bovine serum (FBS), 2 mM L-glutamine, 110 mg/L sodium pyruvate, 1×non-essential amino acids, 100 U/mL penicillin-streptomycin and 0.5 mg/mL G418 (Invitrogen). For dose-response testing, the cells are seeded in 96-well plates at 7.5×10^3 cells/well in a volume of 50 μL and incubated at 37° C./5% CO2. Three hours after plating, 50 μL of ten 2-fold serial dilutions of compounds (highest concentration, 75 μM) are added and cell cultures were incubated at 37° C./5% CO2 in the presence of 0.5% DMSO. Alternatively, compounds are tested at a single concentration of 15 μM. In all cases, Huh-7 cells lacking the HCV replicon served as negative control. The cells are incubated in the presence of compounds for 72 hours after which they were monitored for expression of the NS4A protein by enzyme-linked immunosorbent assay (ELISA). For this, the plates were then fixed for 1 min with 1:1 acetone:methanol, washed twice with phosphate-buffered saline (PBS), 0.1% Tween 20, blocked for 1 hour at room temperature with TNE buffer containing 10% FBS and then incubated for 2 h at 37° C. with the anti-NS4A mouse monoclonal antibody A-236 (ViroGen) diluted in the same buffer. After washing three times with PBS, 0.1% Tween 20, the cells are incubated 1 hour at 37° C. with anti-mouse immunoglobulin G-peroxidase conjugate in TNE, 10% FBS. After washing as described above, the reaction is developed with O-phenylenediamine (Zymed). The reaction is stopped after 30 minutes with […] and the absorbance is read at 492 nm using a Sunrise Tecan spectrophotometer. EC50 values are determined from the % inhibition versus concentration data using a sigmoidal non-linear regression analysis based on four parameters with Tecan Magellan software. […] For cytotoxicity evaluation, GS4.1 cells are treated with compounds as described above and cellular viability was monitored using a Cell Titer 96 AQueous One Solution Cell Proliferation Assay (Promega). CC50 values are determined from the % cytotoxicity versus concentration data with Tecan Magellan software as described above.

[5] = system: HCV Conl subgenomic replicon (GS4.1 cells); test: HCV replicon assay (NS4A ELISA, HCV ELISA 2); format: cell-based; conditions: Hepatitis C virus; for EC50: 72 h, read-out: HCV ELISA 2 EC50 (μM)
Description: as §3

[6] = IV dose 10 mg/kg, 1 hr, individual animals, 10 mg/kg
[7] = IV dose 10 mg/kg, 3 hrs, individual animals, 10 mg/kg
[8] = Oral dose 20 mg/kg, 1 hr, individual animals, 20 mg/kg
[9] = Oral dose 20 mg/kg, 3 hrs, individual animals, 20 mg/kg
[10] = Oral dose 20 mg/kg, 8 hrs, individual animals, 20 mg/kg

## CC(C)NP(=O)(OCCSC(=O)C(C)(CO)CO)OC[C@H]1CC[C@@H](n2cnc3c(N)ncnc32)O1 (stereo partly shown) [A361 (NM 55)]
[1]
  EC50: > 10 µM
[2]
  pEC50: 5.00 to 6.00

## Hydroxy-tBuSATE N-benzylphosphoramidate derivative of L-ddA [A550 (Ex 1)]
[3]; IV dose 10 mg/kg, 1 hr, Mean
  Concentration Compound (A550) (Ex 1) in liver: 80.0 pmol/g liver
[3]; [6]
  Concentration Compound (A550) (Ex 1) in liver: 65.8 pmol/g liver and 89.1 pmol/g liver and 85.1 pmol/g liver
  Concentration ddA-TP in liver: 2025 pmol/g liver and 1930 pmol/g liver and 1355 pmol/g liver
[3]; IV dose 10 mg/kg, 1 hr, individual animals, hepatocellularity 114 × 10^6 cells per gram liver, 10 mg/kg
  Concentration ddA-TP in liver: 17.8 pmol/10^6 cells and 16.9 pmol/10^6 cells and 11.9 pmol/10^6 cells
[3]; IV dose 10 mg/kg, 3 hrs, Mean
  Concentration Compound (A550) (Ex 1) in liver: 27.9 pmol/g liver
[3]; [7]
  Concentration Compound (A550) (Ex 1) in liver: 28.3 pmol/g liver and 26.0 pmol/g liver and 29.3 pmol/g liver
  Concentration ddA-TP in liver: 1345 pmol/g liver and 11.8 pmol/10^6 cells and 1940 pmol/g liver and 17.0 pmol/10^6 cells and 2990 pmol/g liver and 26.2 pmol/10^6 cells
[3]; Oral dose 20 mg/kg, 1 hr, Mean
  Concentration Compound (A550) (Ex 1) in liver: 251 pmol/g liver
[3]; [8]
  Concentration Compound (A550) (Ex 1) in liver: 411 pmol/g liver and 272 pmol/g liver and 70.2 pmol/g liver
  Concentration ddA-TP in liver: 210 pmol/g liver and 1.8 pmol/10^6 cells and 575 pmol/g liver and 5.0 pmol/10^6 cells and 400 pmol/g liver and 3.5 pmol/10^6 cells
[3]; Oral dose 20 mg/kg, 3 hrs, Mean
  Concentration Compound (A550) (Ex 1) in liver: 204 pmol/g liver
[3]; [9]
  Concentration Compound (A550) (Ex 1) in liver: 360 pmol/g liver and 92.1 pmol/g liver and 161 pmol/g liver
  Concentration ddA-TP in liver: 200 pmol/g liver and 1.8 pmol/10^6 cells and 330 pmol/g liver and 2.9 pmol/10^6 cells and 405 pmol/g liver and 3.6 pmol/10^6 cells
[3]; Oral dose 20 mg/kg, 8 hrs, Mean
  Concentration Compound (A550) (Ex 1) in liver: 20.1 pmol/g liver
[3]; [10]
  Concentration Compound (A550) (Ex 1) in liver: 16.4 pmol/g liver and 28 pmol/g liver and 16.2 pmol/g liver
  Concentration ddA-TP in liver: 280 pmol/g liver and 2.5 pmol/10^6 cells and 805 pmol/g liver and 5.2 pmol/10^6 cells and 275 pmol/g liver and 2.4 pmol/10^6 cells

## CC(C)N(C(C)C)P(=O)(OCCSC(=O)C(C)(C)CO)OC[C@@H]1CC[C@H](n2cnc3c(N)ncnc32)O1 (stereo partly shown) [A616 (NM 128)]
[2]; read-out: RI EC50 (μM)
  EC50: 1 to 10 µM

## Cc1cn([C@@H]2CC(O)[C@H](CO)O2)c(=O)[nH]c1=O (stereo partly drawn) [L-dT, Telbivudine, reference compound]
[2]
  pEC50: > 6.00

## CC(C)NP(=O)(OCCSC(=O)C(C)(C)CO)OC[C@H]1CC[C@@H](n2cnc3c(N)ncnc32)O1 (stereo partly shown) [Example C791]
[1]
  EC50: 1 to 10 µM

## CC(C)NP(=O)(OCCSC(=O)C(C)(C)CO)OC[C@@H]1CC[C@H](n2cnc3c(N)ncnc32)O1 (stereo partly shown) [A348 (NM 48)]
[1]
  EC50: < 1 µM

## CN(Cc1ccccc1)P(=O)(OCCSC(=O)C(C)(C)CO)OC[C@H]1O[C@@H](n2ccc(N)nc2=O)[C@](C)(O)[C@@H]1O (mixture of isomers) [Example B308, Hydroxy-tBuSATE N-methylbenzylphosphosphoramidate Derivative of 2′-C-methyl-cytidine]
[4]
  CC50 at 72 h: > 75 µM
[5]
  EC50: 1 to 10 µM

## CC(C)(CO)C(=O)SCCOP(=O)(OC[C@H]1O[C@@H](n2ccc(N)nc2=O)[C@](C)(O)[C@@H]1O)N1CCCC1 (mixture of isomers) [Example B395, Hydroxy-tBuSATE N-pyrrolidinephosphosphoramidate Derivative of 2′-C-methylcytidine]
[4]
  CC50 at 72 h: > 75 µM
[5]
  EC50: 1 to 10 µM

## CC(C)(CO)C(=O)SCCOP(=O)(NCc1ccccc1)OC[C@H]1O[C@@H](n2cnc3c(=O)[nH]c(N)nc32)[C@](C)(O)[C@@H]1O (mixture of isomers) [Example B299, Hydroxy-tBuSATE N-benzylphosphoramidate Derivative of 2′-C-methylguanosine]
[4]; 72 hours
  CC50: > 75 µM
[5]; GS4.1 cells, 72 hours, NS4A ELISA, read-out: HCV ELISA 2 EC50
  pEC50: > 6.00
